Measurements as given in patent US8778886B2, “Methods of making and using a cell penetrating peptide for enhanced delivery of nucleic acids, proteins, drugs, and adenovirus to tissues and cells, and compositions and kits” (Tufts University, priority 2007, dated 2014).

Experiments:
HER cells [1] = test: C-POD delivery of siRNA, silencing of GFP expression; format: cell-based, human; settings: pEGFP delivered by C-POD, no siRNA
Protocol: pCAGRFP was compacted with C-POD at a ratio of 400 peptide/plasmid molecules. Briefly, 2 μg of DNA and the appropriate concentration of peptide were each suspended in 15 μL of either 100 μM sodium phosphate or 5% dextrose buffer. The peptide and DNA solutions were mixed and incubated for 30 minutes at room temperature prior to addition to HER cells. After 48 hours, cells were resuspended in PBS for FACS analysis. For electron microscopy, peptide/DNA complexes were prepared as above. Particles were bound to glow-discharged copper grids, stained with urinyl acetate, and visualized on a CMIO Transmission Electron Microscope (Philips) using Digital Micrograph software (Gatan, Inc). C-POD was used to compact both pd2-EGFP-NI and GFP Duplex I at concentrations of 450 particles/DNA molecule and 25 particles/duplex molecule, respectively, in 100 mM sodium phosphate buffer using the same procedures described above. Compacted pd2-EGFP-NI DNA, 2 μg, and 70 pmoles of GFP Duplex I diluted in DMEM+2% FBS were added simultaneously to HER cells for 4 hours. Growing medium was then added to cells and the incubation continued for 44 additional hours. […] The amount of fluorescence resulting from the Qdot-peptide complex was determined using a fluorometer and an equivalent amount of unbound Strep-Qdot was added separately as control. […] Uptake of Qdots was determined by fluorescent microscopy as described above. […]

E. coli = test: Microbicidal activity, colony count after plating; format: cell-based; settings: 2 hours at 37° C., plating on LB agar
Protocol: Lissamine conjugated POD (L-POD) and either heparan sulfate or chondroitan sulfate were incubated together at each of molar ratios of 1:3.33, 1:6.67, and 1:8 in water for 30 minutes at room temperature. The complex was diluted in DMEM+2% FBS and added to 0.2×]06 HER cells for 5 minutes at 37° C. Following incubation, cells were trypsinized and suspended in PBS for FACS analysis as described above. To measure microbicidal activity of C-POD, XL-1 Blue cells (Stratagene, La Jolla, Calif.) were grown to mid logarithmic phase (OD600=0.600) and washed twice in a solution of 10 mM Tris, pH 7.4 and 5 mM Glucose. The cells were resuspended in 10 mL of the same solution and […] of the suspension was incubated with C-POD in a final volume of 50 μL. The peptide/bacteria cell solution was rocked for 2 hours at 37° C. The peptide-treated bacteria was diluted 1:4500 with LB broth, plated on agar, and grown overnight at 37° C. The following day, the bacterial colonies on each plate were counted to quantify peptide-related reduction in growth.
Since endophthalmitis, an infection within the eye, is regularly a complicating factor in drug delivery to ocular tissues [Ho J et al. 2007 Int Opthalmol Clin 47: 199-208], C-POD was examined for potential microbicidal activities. E. coli cells grown to mid-log phase were incubated with either H20 only or C-POD suspended in H20 at concentrations ranging from 0.03 μM to 60 μM, and cell number was determined by plating samples on LB agar. […] Greater concentrations of C-POD completely eliminated bacterial growth.

retina = test: Subretinal / intravitreal injection of POD-GFP protein in vivo; set-up: species or system C57BL/6J mice
Protocol: (§1) Subretinal and intravitreal injections of the fusion proteins were performed using techniques described in Cashman et al. [2006 Invest Opthalmol Vis Sci 47:3496-3504]. Briefly, 8.5 μg of POD-GFP or 6.6 μg of GFP protein was injected into the subretinal or intravitreal space respectively, of 6-8 week old C57BL/6J mice. Four independent injections were performed and yielded nearly identical results. Six hours post-injection, mice were sacrificed by CO2 inhalation and cervical dislocation. For topical delivery of the POD-GFPHis or GFP-His, C57BL/6J mice were anesthetized with xylazine/ketamine and 2 μl containing 40 μg of protein were dropped onto the […] surface. Forty-five minutes following administration, mice were sacrificed as above and eyes enucleated, washed twice in PBS, and fixed overnight in 4% paraformaldehyde. Eyes were embedded in Optimal Cutting Temperature Compound (Sakura Finetek, Torrance, Calif.) and 14 μm sections were collected using a Microm 550 cryostat.
To determine the transduction properties of POD-GFP […] an amount of 8.5 μg of each of purified POD-GFP or control GFP protein was injected into the subretinal space, i.e., between the retinal pigment epithelium (RPE) and photoreceptors, of 6 week-old male C57BL61J mice. Eyes were harvested after 6 hours and frozen sections were examined by fluorescence microscopy.
Purified POD-GFP, 6.6 μg, or that amount of control GFP protein was injected into the intravitreal space, i.e. between the lens and neural retina of 6 week-old male C57BL6/J mice, and eyes were harvested after 6 hours and frozen sections examined by fluorescence microscopy. […] Unlike with subretinal injection, no POD-GFP signal was detectable in the outer nuclear layer or RPE beyond that of background auto-fluorescence and the overall number of GFP-positive cells was less than that achieved by subretinal injection.

HER cells [2] = test: POD-GFP protein transduction in vitro, GFP-positive cells by FACS and localization; format: cell-based, human; settings: for GFP-positive cells: HER, 10 μg protein, 2 hours
Protocol: (§2) To evaluate cellular penetration of POD fusion proteins, HER cells were seeded on Lab Tek-II chamber slides and incubated with 10 μg of POD-GFP or GFP for two hours. Following fixation, cells were visualized by light and fluorescence microscopy using an Olympus BX51 microscope with differential interference contrast (DIC) and the appropriate fluorescence filters. Images were captured using a Retiga 2000R FAST camera and QCapture Pro 5.0 (QImaging, British Columbia, Canada). To quantitate protein uptake, 0.2×10^6 of either HER or A549 cells were incubated with 10 μg POD-GFP or GFP for 2 hours. Cells were washed with PBS, pelleted and resuspended in PBS for FACS analysis. Cell membrane integrity was evaluated by measuring the percentage of Propidium Iodide (1 μM) positive cells in the presence of fusion protein. FACS analysis of protein uptake and toxicity was performed using a FACSCAlibur (Becton Dickinson, Franklin. Lakes, N.J.) and results analyzed using CellQuest Pro (Becton Dickinson). 10,000 events were counted for each analysis, which was performed in triplicate and repeated at least once.
HER and A549 cells were treated as above for subsequent addition of LysoTracker, ER Tracker (Molecular Probes, Carlsbad, Calif.), or DAPI, and were incubated for one hour. These reagents were removed and cells were fixed with formalin for imaging.
To determine the transduction capabilities of POD-GFP in vitro, each of approximately 0.2×10^6 human lung carcinoma epithelial cells (A549) or HER cells were incubated with 10 μg of each of purified recombinant POD-GFP or control GFP protein for 2 hours and the number of GFP-positive cells were counted by FACS. […] Similarly, 34.2±3.4% and 1.8±0.4%, respectively, of HER cells were GFP-positive when incubated with POD-GFP or GFP, respectively (FIG. 9 panel A).
In contrast to endogenous gene expression, POD-GFP in the Example herein appeared in the cytoplasm of HER cells in a punctate pattern (FIG. 9 panel B), similar to observations in examples above with L-POD peptide and similar to that of an endocytic mechanism of uptake.

[3] = test system: human lung carcinoma epithelial cells (A549); test: POD-GFP protein transduction in vitro, GFP-positive cells by FACS; format: cell-based; settings: A549, 10 μg protein, 2 hours
Protocol: as §2, with “once. […]” for “once.”

skin = test: Topical application of POD-GFP to shaved skin in vivo; set-up: species or system C57BL6/J mice; settings: 40 μg; for GFP-fluorescence in skin: 24 hours
Protocol: Adult mice were anesthetized as described above and the abdomen shaved to reveal a 2.25 cm^2 area of skin. A dose of 40 μg of protein was applied to the skin for 24 hours. Upon completion of the treatment, animals were sacrificed and the treated skin dissected and fixed overnight in 4% paraformaldehyde and transverse sections were obtained as described herein.
To extend these observations to other organ systems, the potential of transdermal delivery of POD-fusion protein was examined. POD-GFP (40 μg) or control OFF was topically applied to shaved skin of adult C57BL6/J mice. Animals were sacrificed 24 hours later and frozen sections of the treated region were examined by fluorescence microscopy.

cornea = test: Topical application of POD-GFP to cornea in vivo; set-up: species or system C57BL6/J mouse; settings: 40 μg, 45 minutes
Protocol: as §1, with “Eyes were embedded in Optimal Cutting Temperature Compound (Sakura Finetek, Torrance, Calif.) and 14 μm sections were collected using a Microm 550 cryostat.” left out
To further examine localization of POD-GFP, anterior ocular tissues were dissected and the corneas were flat mounted or cross-sectioned and re-examined by fluorescence microscopy. […] In contrast, GFP-fluorescence was readily detected on both flat mounts and cross sections of corneas from mice that received topical application of POD-GFP (FIG. 12 panel B). […] No GFP-signal was detected in corneal cross-sections prepared from mice that received topical application of control GFP.

[4] = test system: human embryonic retinoblast (HER) cells; test: Localization of de novo synthesized POD-GFP after plasmid transfection; format: cell-based; settings: transfection with pPODGFPHis or pGFPHis
Protocol: Human embryonic retinoblast (HER) cells were cultured using previously described methods [Fallaux F J et al. 1996 Hum. Gene Ther. 7: 215-222]. Carcinoma human alveolar basal epithelial cells (A549, American Type Culture Collection, Manassas, Va.) were grown to 70-80% confluence in DMEM media supplemented with 10% fetal bovine serum (FBS). All cell culture procedures were performed in DMEM supplemented with 2% FBS. Transfection of plasmids was carried out using 2:1 μL Lipofectamine: μg plasmid in Opti-MEM media. Forty-eight hours post-transfection, the cells were fixed and stained with DAPI, 4′,6-diamidino-2-phenylindole.
Transfection of human embryonic retinoblast (HER) cells [Fallaux F J et al. 1996 Hum. […] Furthermore, POD-GFP appeared to concentrate in sub nuclear compartments (FIG. 7 panel B, arrowheads).

HER cells [5] = test: Toxicity during protein transduction, propidium iodide uptake; format: cell-based, human; settings: HER cells incubated with protein
Protocol: as §2
Extent of toxicity to cells during protein transduction was measured by uptake of propidium iodide (PI).

| Substance | GFP-positive cells (HER cells [1]) [%] | concentration giving almost complete inhibition of bacterial growth (E. coli) [µM] | concentration giving significant inhibition of bacterial growth (E. coli) [µM] | detection in retina by fluorescence microscopy (retina; intravitreal, 6.6 μg, 6 hours) | detection in retina by fluorescence microscopy (retina; subretinal, 8.5 μg, 6 hours) | GFP-positive cells (HER cells [2]) [%] | GFP-positive cells [3] [%] | GFP-fluorescence in skin (skin) | presence on outer surface of the eye (cornea) | localization of expressed protein [4] | PI-positive cells (HER cells [5]) [%] | binding to lens capsule (retina; intravitreal injection) | transduction of the ONL, share of the retinal surface (retina; subretinal, 8.5 μg, 6 hours) | cellular localization of exogenously added protein (HER cells [2]; HER cells) | duration of binding to mouse skin (skin) |
| --- | --- | --- | --- | --- | --- | --- | --- | --- | --- | --- | --- | --- | --- | --- | --- |
| CGGG(ARKKAAKA)4 (CGGGARKKAAKAARKKAAKAARKKAAKAARKKAAKA; The peptide was designed and synthesized) [C-POD] | 49.13±2.23 | 24.0 | 0.30 |  |  |  |  |  |  |  |  |  |  |  |  |
| GFP: His-tagged GFP control protein [reference compound] |  |  |  | not detected in retinal cells above background auto-fluorescence | barely discernible above background auto-fluorescence | 1.8±0.4 | 1.4±0.4 | Only minimal GFP-fluorescence | washed away | relatively diffuse cytoplasmic and nuclear localization | 3.2±2.7 |  |  |  |  |
| POD-GFP: His-tagged POD-GFP fusion protein |  |  |  | readily detected in ganglion cells | abundantly present in the outer nuclear layer | 34.2±3.4 | 35.3±0.9 | significantly GFP-positive | detected on most of the ocular surface | relatively weak cytoplasmic and intense nuclear localization | 2.8±3.8 | very strong affinity | up to 40% | colocalize in part with Lysotracker | at least 24 hours |
